Reference: patent publication US10603345B2, “Pharmaceutical composition for treating respiratory disease” (Kunming Institute of Botany, The Chinese Academy of Sciences, priority 2015, dated 2020)

Assays:
Type in all cases: in vivo
[1] = test system: MDA in serum and homogenate of pulmonary fibrosis model mouse; test: Effect on MDA in serum and homogenate of pulmonary fibrosis model mouse; conditions: bleomycin pulmonary fibrosis mouse, ig 28 d, dose/kg: prednisone acetate 5 mg, Test group 1 50, 2 25, 3 12.5, picrinine 5.0, vallesamine 3.0, scholaricine 3.5, 19-epi-scholaricine 1.0 mg, x ± SD
Method: (§1) Animal source: 30˜35 g male ICR mouse, from laboratory animal department of Kunming Medical University, License No. SCXK (Dian) 2011-0004.
(§2) Method and route: bleomycin was used to induce mouse pulmonary fibrosis, and after intragastrical administration for 28 d at a dose of 20 mL/kg, the animal was sacrificed at the 29th day.
(§3) Group and dose: Sham group, Model group, Positive control group, prednisone acetate (5 mg/kg) group, Test group 1: picrinine, vallesamine, scholaricine and 19-epischolaricine prepared in Example 1.7 were mixed at different ratios by weight (50 mg/kg), Test group 2: the alkaloid composition (25 mg/kg) prepared in Example 1.5, Test group 3: the alkaloid composition (12.5 mg/kg) prepared in Example 1.6, Picrinine group (5.0 mg/kg), Vallesamine group (3.0 mg/kg), Scholaricine group (3.5 mg/kg), and 19-epischolaricine group (1.0 mg/kg).
(§4) Positive control drug: prednisone acetate tablet, Approval number: H33021207, 5 mg/tablet, produced by Zhejiang Xianju Pharmaceutical Co., Ltd., Batch No. 140146.
(§5) Sample preparation: all the samples were prepared by using 0.5% carboxymethylcellulose sodium (0.5% CMC-Na).
Group and dose: in Test group 1, the ratio of picrinine, vallesamine, scholaricine and 19-epischolaricine by weight was 8:5:5:1, and the other groups and doses thereof were as described in Example 12.
Test index: MDA in serum and homogenate was used as index, and was determined by thiobabituric acid method.

[2] = test system: Col-1 in homogenate of pulmonary fibrosis model mouse; test: Effect on Col-1 in homogenate of pulmonary fibrosis model mouse; conditions: ELISA, bleomycin pulmonary fibrosis mouse, ig 28 d, dose/kg: prednisone acetate 5 mg, Test group 1 50, 2 25, 3 12.5, picrinine 5.0, vallesamine 3.0, scholaricine 3.5, 19-epi-scholaricine 1.0 mg, x ± SD
Method: as §1, §2, §3, §4, §5
Group and dose: in Test group 1, the ratio of picrinine, vallesamine, scholaricine and 19-epischolaricine by weight was 20:17:17:4, and the other groups and doses thereof were as described in Example 12.
Test index: Col-1 in homogenate was used as index, and was determined by enzyme linked immunosorbent assay.

[3] = test system: KL-6 in serum of pulmonary fibrosis model mouse; test: Effect on KL-6 in serum of pulmonary fibrosis model mouse; conditions: ELISA, bleomycin pulmonary fibrosis mouse, ig 28 d, dose/kg: prednisone acetate 5 mg, Test group 1 50, 2 25, 3 12.5, picrinine 5.0, vallesamine 3.0, scholaricine 3.5, 19-epi-scholaricine 1.0 mg, x ± SD
Method: as §1, §2, §3, §4, §5
Group and dose: in Test group 1, the ratio of picrinine, vallesamine, scholaricine and 19-epischolaricine by weight was 45:38:30:8, and the other groups and doses thereof were as described in Example 12.
Test index: KL-6 in serum was used as index, and was determined by enzyme linked immunosorbent assay.

[4] = test system: IL-10 in BALF of asthma model mouse; test: Effect on IL-10 in BALF of asthma model mouse; conditions: ELISA, ig 7 d, dose/kg: dexamethasone 2.0 mg, Test group 1 50, 2 25, picrinine 5.0, vallesamine 3.0, scholaricine 3.0, 19-epi-scholaricine 3.5 mg, x ± SD
Method: Animal source: 25˜30 g male ICR mouse, from laboratory animal department of Kunming Medical University, License No. SCXK (Dian) 2011-0004.
Method and route: ovalbumin (OVA) was used to induce mouse asthma model, and after intragastrical administration for 7 d at a dose of 20 mL/kg, the animal was sacrificed at the eighth day.
Test group 1: picrinine, vallesamine, scholaricine and 19-epischolaricine prepared in Example 1.7 were homogeneously mixed at different ratios by weight (50 mg/kg), Test group 2: the alkaloid composition prepared in Example 1.4 (25 mg/kg). […]
as §5
Group and dose: in Test group 1, the ratio of picrinine, vallesamine, scholaricine and 19-epischolaricine by weight was 18:13:14:3, and the other groups and doses thereof were as described in Example 11.
Test index: IL-10 in BALF was used as index, and was determined by enzyme linked immunosorbent assay.

[5] = test system: SOD in serum and homogenate of pulmonary fibrosis model mouse; test: Effect on SOD in serum and homogenate of pulmonary fibrosis model mouse; conditions: bleomycin pulmonary fibrosis mouse, ig 28 d, dose/kg: prednisone acetate 5 mg, Test group 1 50, 2 25, 3 12.5, picrinine 5.0, vallesamine 3.0, scholaricine 3.5, 19-epi-scholaricine 1.0 mg, x ± SD
Method: as §1, §2, §3, §4, §5
Group and dose: in Test group 1, the ratio of picrinine, vallesamine, scholaricine and 19-epischolaricine by weight was 10:7:7:2, and the other groups and doses thereof were as described in Example 12.
Test index: SOD in serum and homogenate was used as index, and was determined by xanthine oxidase method.

In the case of `COC(=O)C1=C2Nc3c(O)cccc3[C@@]23CCN2C[C@@H]([C@H](C)O)[C@@H]1C[C@H]23` [19-epi-scholaricine, 19-epischolaricine], the “MDA Homogenate” value ([1]; homogenate) is reported as 22.0 ± 7.4 nmol/mg prot, the “MDA Serum” value ([1]; serum) is reported as 0.66 ± 0.18 nmol/mg prot and the Col-1 [2] is reported as 6.5 ± 2.2 μg/g prot. It also gave a KL-6 [3] of 4.10 ± 0.97 U/mg prot.

With `C/C=C1/CN2CC[C@@H]1[C@@](CO)(C(=O)OC)c1[nH]c3ccccc3c1C2` [vallesamine] the Col-1 [2] was 6.3 ± 2.7 μg/g prot and the IL-10 [4] was 14.83 ± 3.49 pg/mL.

`C/C=C1/CN2[C@@H]3C[C@@]45c6ccccc6N[C@]4(O3)[C@@H]2C[C@@H]1[C@H]5C(=O)OC` [picrinine] was tested, and the “SOD homogenate” value ([5]; homogenate) was 53.2 ± 8.9 U/mg prot, the “SOD Serum” value ([5]; serum) was 17.2 ± 5.1 U/mg prot and the KL-6 [3] was 3.91 ± 0.60 U/mg prot. It also gave an IL-10 [4] of 13.00 ± 3.15 pg/mL.
